Data on two molecules can be found in patent US9029369B2, “Aprepitant L-proline composition and cocrystal” (Nuformix Limited, priority 2010, dated 2015).

Like-named read-outs stand apart in the source and are kept apart here.

Data set [1] can be described thus: Dissolution study, USP Apparatus 2 (paddle), distilled water containing 2.2% SDS. The class given is physicochemical. The settings on record: 2.2% SDS in purified water. How it is done: Material providing 125 mg of aprepitant was used in each dissolution experiment and in each experiment the test sample was added directly to the dissolution media as a loose powder.
Analysis was carried out by HPLC/UV using an Agilent 1100/1200 series HPLC system with UV variable wavelength detection. Standards were prepared in acetonitrile at 0.14 mg/ml. All standard and sample solutions were filtered through 0.45 μm filters.

Data set [2] in a line: Stability study under accelerated conditions, 40° C./75% RH, examined by XRPD.
The conditions of data set [3]: cited from earlier work.
The conditions of data set [4]: nanoparticulate formulation (marketed capsules, oral); cited from earlier work.
For data set [5] the following is noted: low solubility and low permeability API; cited from earlier work.
Where [6] appears, read: 0 mins, 900 ml, 37.0° C., 100 rpm, material providing 125 mg aprepitant, triplicate.
[7] abbreviates: 180 mins (infinity time point), 37.0° C., 100 rpm.

On to `C[C@@H](O[C@H]1OCCN(Cc2n[nH]c(=O)[nH]2)[C@H]1c1ccc(F)cc1)c1cc(C(F)(F)F)cc(C(F)(F)F)c1.O.O=C(O)[C@@H]1CCCN1`, for which the mean dissolution value in data set [1] (setting [6]) is given as 0.0%; in data set [1] (1 min, 37.0° C., 100 rpm), “more than 93%”; in data set [1] (1 min, 37.0° C., 100 rpm, listed as 1:1:1 Aprepitant L-proline cocrystal) it was 93.4%; in data set [1] (2 mins, 37.0° C., 100 rpm), 95.7%; in data set [1] (3 mins, 37.0° C., 100 rpm), 95.6%; in data set [1] (4 mins, 37.0° C., 100 rpm) it was 95.8%. Also, the mean dissolution value is 95.1% in data set [1] (5 mins, 37.0° C., 100 rpm); 95.5% in data set [1] (10 mins, 37.0° C., 100 rpm); 95.9% in data set [1] (15 mins, 37.0° C., 100 rpm); 96.0% in data set [1] (20 mins, 37.0° C., 100 rpm); 96.2% in data set [1] (30 mins, 37.0° C., 100 rpm); 96.8% in data set [1] (45 mins, 37.0° C., 100 rpm). In addition, the mean dissolution value was 97.0% in data set [1] (60 mins, 37.0° C., 100 rpm) and 99.2% in data set [1] (setting [7]). Moreover, the “behaviour once dissolved (re-precipitation of the API)” value in data set [1] (up to 180 minutes) was “remained in solution with no re-precipitation of the API”. The “XRPD Characterization” value in data set [2] (1 month), in data set [2] (1 week), in data set [2] (2 months), in data set [2] (2 week), in data set [2] (3 months) and in data set [2] (3 week) was “cocrystal” in each case. The “XRPD Characterization” value in data set [2] (6 months) and in data set [2] (time point 0) was “cocrystal” in each case. Besides, the “physical stability with respect to dissociation into starting components” value in data set [2] (six month period) is given as “stable”.
As to `C[C@@H](O[C@H]1OCCN(Cc2nc(=O)[nH][nH]2)[C@H]1c1ccc(F)cc1)c1cc(C(F)(F)F)cc(C(F)(F)F)c1` [Crystalline Aprepitant, reference compound], the mean dissolution value in data set [1] (setting [6]) stood at 0.0%; in data set [1] (1 min, 37.0° C., 100 rpm), 18.5%; in data set [1] (2 mins, 37.0° C., 100 rpm), 34.4%; in data set [1] (3 mins, 37.0° C., 100 rpm), 44.2%; in data set [1] (4 mins, 37.0° C., 100 rpm), 52.2%; in data set [1] (5 mins, 37.0° C., 100 rpm) it was 57.6%. The mean dissolution value is 70.1% in data set [1] (10 mins, 37.0° C., 100 rpm); 77.2% in data set [1] (15 mins, 37.0° C., 100 rpm); 80.4% in data set [1] (20 mins, 37.0° C., 100 rpm); 85.4% in data set [1] (30 mins, 37.0° C., 100 rpm); 87.3% in data set [1] (45 mins, 37.0° C., 100 rpm); 89.3% in data set [1] (60 mins, 37.0° C., 100 rpm). In data set [1] (setting [7]), the mean dissolution value was found to be 94.6%. The “time to achieve the same level of dissolution that the cocrystal achieved within the first minute” value in data set [1] (37.0° C., 100 rpm) is about 180 min. The solubility entry in data set [3] (in acetonitrile) is on record as “slightly soluble”; in data set [3] (in ethanol) it was “sparingly soluble”; in data set [3] (in isopropyl acetate) it was “sparingly soluble”; in data set [3] (in water) it was “practically insoluble”. For the same molecule, in data set [4], the mean absolute bioavailability was 60-65%. In addition, the BCS class result in data set [5] is recorded as “Class IV”.
